Assay results published in US20150125515A1, “NOVEL SP-B & SP-C PEPTIDES, SYNTHETIC LUNG SURFACTANTS, AND USE THEREOF” (UNIVERSITY OF ROCHESTER, priority 2012, published 2015).
Bridges are numbered along the chain shown (N, C = ends). Roman numbers before positions name the chains, in order. Where no end group is shown, it is not given here.

Key:
[1] = Adsorption of surfactant compositions to the air-water interface (surface pressure vs time, Wilhelmy method); assay type: physicochemical; conditions: for adsorption compared with lung surfactant (CLSE in Table 7): 3% by weight peptide with 5:3:2 (molar ratio) DPPC:POPC:POPG; for adsorption, result in words: peptide 3% by weight with synthetic ester linked phospholipids 5:3:2 DPPC:POPC:POPG
Procedure: Surface activity of synthetic peptide/lipid surfactant compositions was assessed by either or both of the following methods: (1) measurement of the adsorption of surfactant compositions to the air-water interface as a function of time, and (2) measurement of overall dynamic surface activity on a pulsating bubble surfactometer (general methodological details of these two experimental techniques are described by Notter, Lung Surfactants: Basic Science and Clinical Applications, Marcel Dekker, Inc, New York (2000), which is hereby incorporated by reference in its entirety).
In adsorption studies, a given surfactant mixture was injected at time zero beneath the surface of a stirred surfactant-free subphase, and surface pressure (defined as surface tension lowering below that of the pure subphase) was measured as a function of time from the force on a hanging platinum slide (“Wilhelmy” method). By definition, higher surface pressure corresponds to lower surface tension (Notter, Lung Surfactants: Basic Science and Clinical Applications, Marcel Dekker, Inc, New York (2000)).

[2] = tested on: ventilated rabbits with ARDS induced by saline lavage; experiment: Saline-lavage ventilated rabbit model of ARDS: arterial oxygenation and dynamic compliance; assay type: in vivo, New Zealand white rabbits; conditions: for Oxygenation and lung compliance after instillation (FIG. 1): SP-B mimics 3.0% by weight in 5:3:2 (weight ratio) DPPC:POPC:POPG; for Oxygenation and lung compliance after instillation (FIG. 1) / Oxygenation and lung compliance after instillation (FIG. 2): PBS pH 7.4, 35 mg/mL; for Oxygenation and lung compliance after instillation (FIG. 1) / relative order of pulmonary activity in terms of oxygenation / relative pulmonary activity with respect to lung compliance / Oxygenation and lung compliance after instillation (FIG. 2) / relative order of pulmonary activity in terms of oxygenation and lung compliance: intratracheal 100 mg/kg; for Oxygenation and lung compliance after instillation (FIG. 1) / relative order of pulmonary activity in terms of oxygenation / relative pulmonary activity with respect to lung compliance: over 120 min; for relative order of pulmonary activity in terms of oxygenation / relative pulmonary activity with respect to lung compliance: SP-B mimics 3.0% by weight in 5:3:2 DPPC:POPC:POPG; for Oxygenation and lung compliance after instillation (FIG. 2): SP-C mimics 3.0% by weight in 5:3:2 (weight ratio) DPPC:POPC:POPG; for relative order of pulmonary activity in terms of oxygenation and lung compliance: SP-C mimics 3.0% by weight in 5:3:2 DPPC:POPC:POPG
Procedure: Saline lavage produces surfactant deficiency, alveolar collapse and lung edema in ventilated rats and rabbits, and is a useful experimental model for human ARDS. A saline-lavage rabbit model for lung injury was thus used to compare synthetic surfactants, with lipids only as negative control. Restoration of lung function was assessed by serial monitoring of gas exchange and lung mechanics. Physiological activity results for selected synthetic SP-B peptides are shown below, and physiological activity results for selected synthetic SP-C peptides are included in following Example 8.
Animal experiments were performed following established protocols approved by the Animal Care and Use Committee at the Los Angeles Biomedical Research Institute at Harbor-UCLA Medical Center. […] In brief, experimental animals were commercially available young adult male New Zealand white rabbits whose respiratory function was followed during mechanical ventilation by measurements of serial arterial blood gases and pulmonary compliance over the first 2 hours after a standardized saline lavage protocol. For this timeframe of study, the model reflected a relatively pure state of surfactant insufficiency in animals with mature lungs. Saline lavage administration was performed after induction of anesthesia, insertion of a venous line in a marginal ear vein, endotracheal intubation and initiation of mechanical ventilation, muscle paralysis, and insertion of a carotid arterial line. Heart rate, arterial blood pressure and rectal temperature were measured continuously. After stabilization on the ventilator, saline lavage was performed with repeated intratracheal instillation and removal of 30 mL of normal saline until the PaO2 dropped below 100 mm Hg (average 3 lavages). Maintenance fluid was provided by a continuous infusion of Lactated Ringer's solution at a rate of 10 ml/kg/h. Edema fluid appearing in the trachea was removed by suctioning. When the PaO2 was stable at less than 100 mm Hg in saline lavaged animals, an experimental or control surfactant mixture was instilled into the trachea at a dose of 100 mg/kg body weight and a concentration of 35 mg/mL. The rabbits were ventilated using a Harvard volume-controlled animal ventilator (tidal volume 7.5 ml/kg, a positive end-expiratory pressure [PEEP] of 3 cm H2O, an inspiratory/expiratory ratio of 1:2, 100% oxygen, and a respiratory rate to maintain a PaCO2 at ˜40 mm Hg). Airway flow and pressures and tidal volume were monitored continuously with a pneumotachograph connected to the endotracheal tube and a pneumotach system. Arterial pH and blood gases were done every 15 minutes. Dynamic lung compliance was calculated by dividing tidal volume/kg body weight by changes in airway pressure (peak inspiratory pressure minus positive end-expiratory pressure) (mL/kg/cmH2O). Animals were sacrificed 2 h after surfactant administration with an overdose of pentobarbital. End-points are pulmonary gas exchange (arterial pH, PaCO2 and PaO2) and pulmonary mechanics (dynamic compliance, postmortem pressure-volume curves). Each treatment group consisted of n=4-9 animals.
The in vivo pulmonary activity of reduced MB DATK and SMB DATK was investigated in comparison with oxidized SMB and MB (positive controls) and lipids alone (negative control) over 120 min, following intratracheal instillation of these surfactants into ventilated rabbits with ARDS induced by saline lavage. Oxidized SMB and MB were used as positive controls, because these SP-B mimics previously indicated high in vivo surfactant activities equal to those of native, full-length porcine SP-B in ventilated rats with ARDS (Walther et al., “Critical Structural and Functional Roles for the N-terminal Insertion Sequence in Surfactant Protein B Analogs,” PLoS One 5:e8672 (2010), which is hereby incorporated by reference in its entirety). […]

## LGIPFFPSSLKRLLIILLL-CONH2 (LGIPFFPSSLKRLLIILLL-NH2) [Mini-SPCff_dog_leu]
[1]
  adsorption compared with lung surfactant (CLSE in Table 7): equaling that of lung surfactant

## FPIPLPYCWLCRALIKRIQAMIDATKRMLPQLVCRLVLRCS (not fully specified (residues 8, 40); cysteine pairing not given here) [SMB DATK_Red]
[2]; FIG. 1, 3.0% by weight in 5:3:2 DPPC:POPC:POPG
  arterial oxygenation and dynamic compliance compared with reduced MB DATK: significantly higher
[2]
  Oxygenation and lung compliance after instillation (FIG. 1): increased quickly
  relative order of pulmonary activity in terms of oxygenation: reduced SMB DATK˜SMB_Ox˜MB_Ox>reduced MB DATK>Lipids alone
  relative pulmonary activity with respect to lung compliance: reduced SMB DATK>SMB_Ox˜reduced MB DATK˜MB_Ox>Lipids alone

## FGIPFFPVHLKRLLILLLL-CONH2 (FGIPFFPVHLKRLLILLLL-NH2) [Mini-SPCff_2_leu]
[1]
  adsorption compared with lung surfactant (CLSE in Table 7): equaling that of lung surfactant

## IPSSPVHLKRLKLLLLLLLLILLLILGALLMGL (SP-c33) [previously reported SP-C peptide (Almlen et al. 2007)]
[2]
  Oxygenation and lung compliance after instillation (FIG. 2): rapidly increased
  relative order of pulmonary activity in terms of oxygenation and lung compliance: SP-C33˜SP-Css ion-lock>SP-Cff>Lipids alone

## LGIPCFPSSLKRLLIIVVV-CONH2 (chain 1 LGIPCFPSSLKRLLIIVVV-NH2; chain 2 LGIPCFPSSLKRLLIIVVV-NH2; disulfide I:5-II:5 (inferred)) [Mini-C dog cf_cys5 dimer]
[1]
  adsorption compared with lung surfactant (CLSE in Table 7): equaling that of lung surfactant

## IPSSPVHLKRLKLLKLLLEEILLKILGALLMGL (SP-C33SS Ion Lock2 K15/E19;E20/K24) [SP-C33ss_ion2]
[1]
  adsorption, result in words: substantial rapid adsorption

## CWLCRALIKRIQAMIDATKRMLPQLVCRLVLRCS (not fully specified (residues 1, 33, bridges); cysteine pairing not given here) [MB DATK_Red]
[1]; Table 10 conditions, 3% by weight with 5:3:2 DPPC:POPC:POPG
  adsorption activity relative to that previously reported for MB without the DATK substitution: improved
[2]
  Oxygenation and lung compliance after instillation (FIG. 1): increased quickly
  relative order of pulmonary activity in terms of oxygenation: reduced SMB DATK˜SMB_Ox˜MB_Ox>reduced MB DATK>Lipids alone
  relative pulmonary activity with respect to lung compliance: reduced SMB DATK>SMB_Ox˜reduced MB DATK˜MB_Ox>Lipids alone

## GIPSSPVHLKRLLIVVVVVELIVKVIVGALLMGL (SP-C SS Ion Lock + L E20/K24) [SP-Css ion-lock]
[1]
  adsorption, result in words: substantial rapid adsorption
[2]
  Oxygenation and lung compliance after instillation (FIG. 2): increased quickly
  relative order of pulmonary activity in terms of oxygenation and lung compliance: SP-C33˜SP-Css ion-lock>SP-Cff>Lipids alone

## GIPFFPVHLKRLLIKVVVEELIVKVIVGALLMGL (SP-C FF Ion Lock2 K15/E19;E20/K24) [SP-C ion-lock2ff]
[1]
  adsorption, result in words: substantial rapid adsorption

## LGIPFFPSSLKRLLIIVVV-CONH2 (LGIPFFPSSLKRLLIIVVV-NH2) [Mini-SPCff_dog]
[1]
  adsorption compared with lung surfactant (CLSE in Table 7): equaling that of lung surfactant
